Values of other authors in US12539267B2, “Product for dyeing keratinous material, containing aminosilicone, a chromophoric compound and organic carbonic acid ester” (Henkel AG & Co. KGaA, priority 2019, dated 2026).

Settings: 25° C.

In the case of `O=C([O-])c1c(Cl)c(Cl)c(Cl)c(Cl)c1-c1c2c(Br)cc(=O)c(Br)c-2oc2c(Br)c(O)cc(Br)c12.O=C([O-])c1c(Cl)c(Cl)c(Cl)c(Cl)c1-c1c2c(Br)cc(=O)c(Br)c-2oc2c(Br)c(O)cc(Br)c12.[Na+].[Na+]` [Acid Red 92, disodium salt of 3,4,5,6-tetrachloro-2-(1,4,5,8-tetrabromo-6-hydroxy-3-oxoxanthen-9-yl)benzoic acid], the solubility in water is given as “greater than 10 g/L”.
For `Nc1cc(S(=O)(=O)[O-])cc2cc(S(=O)(=O)[O-])c(N=Nc3ccccc3)c(O)c12.[Na+].[Na+]` [Acid Red 33, diantrium salt of 5-amino-4-hydroxy-3-(phenylazo)-naphthalene-2,7-disulphonate], the solubility in water is listed as 2500 µg/mL.
For `O=C([O-])C1=NN(c2ccc(S(=O)(=O)[O-])cc2)C(=O)C1N=Nc1ccc(S(=O)(=O)[O-])cc1.[Na+].[Na+].[Na+]` (stereo not shown) [Acid Yellow 23, trisodium salt of 4,5-dihydro-5-oxo-1-(4-sulfophenyl)-4-((4-sulfophenyl)azo)-1H-pyrazole-3-carboxylic acid], the “solubility in water (in words)” value is given as “highly soluble in water”.
For `O=S(=O)([O-])c1ccc(N=Nc2c(O)ccc3ccccc23)cc1.[Na+]` [Acid Orange 7, sodium salt of 4-[(2-hydroxy-1-naphthyl)azo]benzene sulphonate], the solubility in water is listed as “more than 7 g/L”.
